This note sets out measurements from US20210275606A1, “COMPOSITIONS COMPRISING BACTERIAL STRAINS” (4D Pharma Research Limited, priority 2018, published 2021).

Molecules are shown by their SMILES. Several values for one entry are separate records, joined by “and”; a condition that tells them apart may be missing. Equal entries are not always repeated. Structures can show the parent of a compound that is named as a salt.

Assay [1] has as its system HDAC. Briefly: Global HDAC activity analysis in HT-29 cells. The class given is cell-based. The note with it: for inhibition of total HDAC activity: whole HT-29 cells and HT-29 cell lysate tested, sentence does not say which. The protocol: Pure cultures of 43043 bacteria were grown anaerobically in YCFA broth until they reached their stationary growth phase. Cultures were centrifuged at 5,000×g for 5 minutes and the cell-free supernatant (CFS) was filtered using a 0.2 μM filter (Millipore, UK). 1 mL aliquots of the CFS were stored at −80° C. until use. Sodium butyrate, hexanoic and valeric acid were obtained from Sigma Aldrich (UK) and suspensions were prepared in YCFA broth.
(§1) Whole cells and cell free supernatants of stationary phase 43043 cultures were isolated by centrifugation and filtering in a 0.22 uM filter. HT-29 cells were used 3 days' post confluence and stepped down in 1 mL DTS 24 hours prior to commencement of the experiment. The HT-29 cells were challenged with 10% cell free supernatant diluted in DTS and this was left to incubate for 48 hours. […] were then extracted using the Sigma Aldrich Nuclease extraction kit and samples were snap frozen prior to HDAC activity measurement. HDAC activity kit was assessed fluorometrically using the Sigma Aldrich (UK) kit.
(§2) To investigate which metabolites were responsible for the strain-induced HDAC inhibition, different concentrations of hexanoic acid, valeric acid and sodium butyrate were measured for their HDAC inhibition on whole HT-29 cells and on HT-29 cell lysate.

Assay [2] deals with DSS-induced colitis mouse model. The assay is described as follows: DSS-induced colitis mouse model, ileum histology. The class given is in vivo. Also noted: key to Erosion (epithelial cell damage) / Depletion of goblet cells / Edema / Leucocytes Infiltration: 0: None; Minimal <10%; Mild 10-25%; 3: Moderate 26-50%; 4: Marked >50%; COLITIS SCORING (sum) / COLITIS SCORING mean ± SEM: scale not given here. The note with it: Day 7; for COLITIS SCORING mean ± SEM: group mean, n = 9, 3% DSS; for Depletion of goblet cells / Edema / Erosion (epithelial cell damage) / Leucocytes Infiltration: ileum histology score 0-4, individual mouse; for COLITIS SCORING (sum): sum of the four ileum histology scores, individual mouse. The protocol: The objective of this study was to determine the prophylactic efficacy of R. intestinalis strain 43043 in a DSS-induced colitis mouse model, upon repeated oral administration.
Tacrolimus was dosed at 1 mg/kg/day
Valproic acid was dosed at 200 mg/kg/day
PBS, YCFA and bacterial cultures were dosed at 200 μL/day
Each of sixty three, 6 week old healthy male C57BL/6J mice were obtained from Charles River (France) and individually identified and labelled with a specific code. Each treatment group (9 animals/group) were housed in three different cages.
Days −7 to Day −1: Treatment with bacteria and reference substances according the treatment table above • Once daily oral administration of PBS, YCF A or Bacteria—200 μL per mouse • Once daily oral administration of Valproic acid at 200 mg/kg/day under a volume of 10 mL/kg From Day O to Day+7: DSS administration • Administration of 3% DSS in the drinking water From Day O to Day+6: Treatment with bacteria and reference substances • Once daily oral administration of PBS, YCFA or Bacteria—200 μL per mouse • Once daily oral administration of Valproic acid—200 mg/kg in sterile distilled water—10 mL/kg • Once daily SC administration of Tacrolimus—1 mg/kg in sterile 1% Tween80, 0.9% NaCl—10 mL/kg Day+7: Sacrifice of all groups and tissue harvesting • Euthanasia of animals was performed under gas anesthesia (Isoflurane) followed by exsanguination and cervical dislocation. Euthanasia methods used are those recommended for mice and rats by European directive 20 I 0/63/CE and the procedure describing euthanasia methods was approved by IACUC. • Laparotomy and ileum harvesting, just upstream of the caecum (from 0.5 cm and on)—all tissue harvested from exactly the same area between all mice: • 1.5 cm swiss-rolled ileum was harvested for histology, the closest to the caecum
Ileum Swiss-rolls specimens were embedded in paraffin and sections of 5 μm thickness were cut and mounted on SuperFrost Ultra plus glass slides. HP (Hematoxylin-Phloxin) staining & AB-PAS (Alcian Blue-Periodic Acid Schiff) staining were performed to visualize histomorphologic changes. A scoring based on edema, erosion, loss of crypts/goblet cells and infiltrates was established on each animal, using the criteria in the following table: […]

Assay [3] deals with HDAC. Briefly: HDAC inhibition on HT-29 cell lysate. The class given is biochemical. How it is done: as §1, §2
The test system of assay [4] is graft versus host disease (GVHD) induced in Balb/C mice. Briefly: Graft versus host disease (GVHD) induced in Balb/C mice. The note with it: for mean body weight over the course of the study: compared with Group 4 (PBS, TBI + allogeneic transfer), daily dosing Days -14 to 30. The class given is in vivo, mouse. From the text:
Male Balb/C mice (BALB/cAnNCrl; 6-8 weeks old; n=125) with an average starting body weight (±SEM) of 20.67±0.11 g were obtained from Charles River Laboratories (Wilmington, Mass.). An additional n=75 male C57Bl/6 (C57Bl/6NCrl; 6-8 weeks old) were obtained from the same vendor. Animals were acclimatized prior to study commencement. During this period, the animals were observed daily in order to reject any that presented in poor condition.
Animals were randomized into 5 groups at the start of the study. Each group comprised between 8 and 12 mice. Each group was further sub-divided into cohorts A and B (n=4-6 mice per group per cohort); cohorts had staggered disease timelines.
All animals were weighed and randomized by weight into treatment groups prior to study start. Prior to GVHD induction on Days −1 and 0, all animals were pre-treated (P0) with PBS (Groups 1-4), bacterial strain 43043 (Group 5), or Butyrate salt control (Group 6) daily starting on Day −14. Butyrate was used as a positive control as butyrate deficit has been identified in the gut of GVHD patients. Treatments were administered to groups at random, and group treatments were alternated daily to prevent the same groups from being treated at the same time each day. Once test article dosing had begun, care was taken to minimize group cross-contamination: gloves were changed by the technician between treatment groups, and were sprayed with 70% isopropyl alcohol between each cage of the same group.
GVHD was induced in n=84 Balb/C mice (Groups 4-10) using a single acute dose of 8 Gy of total body irradiation (TBI) on Day −1. On Day 0, these recipient mice were given an intravenous injection of a combination of T cell depleted bone marrow cells and splenic cells from donor C57Bl/6 mice in PBS. Bone marrow cells were isolated using standard flushing practices, and were T cell depleted using the cell surface T cell antigen CD3, with a CD3-biotin kit (Miltenyi Biotec catalog 130-094-973). Splenocytes were isolated using Miltenyi GentleMACS Dissociators. Animals in Group 1 served as naïve controls and received neither TBI nor cell transfer. […] Animals in Group 3 served as syngeneic adoptive transfer controls; these animals received 8 Gy of TBI on Day −1, and an intravenous injection of a combination of T cell depleted bone marrow cells and splenic cells from donor Balb/C mice in sterile PBS.
Daily test article dosing continued for the duration of the study (Days −14 to 30). Animal survival was recorded daily, as an indication of GVHD severity. […] The GVHD score was assessed by a standard scoring system based on five criteria (Table 21): percentage of weight change, posture (hunching), activity, fur texture, and skin integrity (maximum score=10). […]

For the molecule `CCCCCC(=O)O` [hexanoic acid], the “inhibition of total HDAC activity” value in the assay on HDAC [1] is “did show significant inhibitory activity”.
For the molecule `CCCC(CCC)C(=O)O` [Valproic acid, Valproic Acid], the “COLITIS SCORING mean ± SEM” value in assay [2] is 0.67 ± 0.10. In assay [2] (3% DSS), the “Depletion of goblet cells” value came out at 0; the Edema is reported as 0; the “Erosion (epithelial cell damage)” value is 0; the “Leucocytes Infiltration” value was 2 (Mild 10-25%) (2×) and 1 (Minimal <10%) (2×) and 0 (5×). Also, in assay [2] (3% DSS), the “COLITIS SCORING (sum)” value is 2 (2×) and 1 (2×) and 0 (5×).
Regarding `CCCC(=O)[O-].[Na+]` [sodium butyrate, Sodium butyrate], the “inhibition of HDAC activity” value in the assay on HDAC [1] (on whole HT-29 cells) and in the assay with HDAC [3] was “significant (P<0.05) inhibition of HDAC activity” throughout.
Consider `C=CC[C@@H]1/C=C(\C)C[C@H](C)C[C@H](OC)[C@H]2O[C@@](O)(C(=O)C(=O)N3CCCC[C@H]3C(=O)O[C@H](/C(C)=C/[C@@H]3CC[C@@H](O)[C@H](OC)C3)[C@H](C)[C@@H](O)CC1=O)[C@H](C)C[C@@H]2OC` [Tacrolimus], for which the “mean body weight over the course of the study” value in assay [4] is recorded as “same trend was observed”. In addition, the “leukocyte infiltration in the ileum” value in assay [2] (group comparison in text, 3% DSS) is “reduced leukocyte infiltration comparable to controls”. The “COLITIS SCORING mean ± SEM” value in assay [2] is reported as 0.44 ±0.08. For the same molecule, in assay [2] (3% DSS), the “Depletion of goblet cells” value is on record as 0; the Edema is 0; the “Erosion (epithelial cell damage)” value is given as 0; the “Leucocytes Infiltration” value was 0 (6×) and 2 (Mild 10-25%) and 1 (Minimal <10%) (2×). The “COLITIS SCORING (sum)” value in assay [2] (3% DSS) is 0 (6×) and 2 and 1 (2×).
Regarding `CCCC(=O)O` [Butyrate salt], in assay [4] (Day 29, as compared to naïve mice (Group 1)), the “Mean colitis severity scores (endoscopy)” value is reported as “increased”. In addition, in assay [4] (Days 0 to 30, AUC, compared to Group 3 (syngeneic transfer), with and without scores carried forward), the “mean GVHD scores” value was “significantly increased mean GVHD scores as compared to Group 3”. Also, the “mean body weight over the course of the study” value in assay [4] is “No significant differences in mean body weight”.
Regarding `CCCCC(=O)O` [Valeric acid, valeric acid], in the assay with HDAC [1], the “inhibition of total HDAC activity” value is recorded as “inhibited total HDAC activity”.
